# Assay results from patent US20250296971A1, “GASTRIC INHIBITORY PEPTIDE RECEPTOR LIGANDS” (priority 2021, published 2025).
# *1 amine or outer side, *2 acyl side, *3 side chain or, on linkers, in order; H or OH if unused. Where a SMILES comes first, the peptide text is derived from it. Bridges are numbered along the chain shown (N, C = ends). Side-chain parts run from the residue outwards. [ ]: non-standard residue; d: D form. The star is where a group is joined. X2 = O=C(O)CN1CCN(CC(=O)O)CCN(CC(=O)N[C@@H](CCC(=O)NC[C@H](O)[C@@H](O)[C@H](O)[C@H](O)CO)C(=O)*)CCN(CC(=O)O)CC1; NH(1-deoxy-D-glucityl) = OC[C@@H](O)[C@@H](O)[C@H](O)[C@@H](O)CN*; DOTA = O=C(O)CN1CCN(CC(=O)O)CCN(CC(=O)*)CCN(CC(=O)O)CC1; Trp(5-Cl) = N[C@@H](Cc1c[nH]c2ccc(Cl)cc12)C(=O)O; Pyridine(2,6-diCH2) = c1cc(C[*:1])nc(C[*:2])c1; Pro(4R-NH2) = N[C@H]1CN[C@H](C(=O)O)C1; Glutaryl = O=C(CCCC(=O)[*:2])[*:1]; Hyp = O=C(O)[C@@H]1C[C@@H](O)CN1; X1 = O=C(CN1CCC(N[*:1])CC1)[*:2]; hSer = N[C@@H](CCO)C(=O)O; Api = NC1(C(=O)O)CCNCC1; AEEA = NCCOCCOCC(=O)O
# Molecular target: T1, GIPR (CHO-K1-hGIPR cells) (Homo sapiens, UniProt P48546)
# T1 construct: host or cells: CHO-K1
# T1 sequence (P48546 22-466): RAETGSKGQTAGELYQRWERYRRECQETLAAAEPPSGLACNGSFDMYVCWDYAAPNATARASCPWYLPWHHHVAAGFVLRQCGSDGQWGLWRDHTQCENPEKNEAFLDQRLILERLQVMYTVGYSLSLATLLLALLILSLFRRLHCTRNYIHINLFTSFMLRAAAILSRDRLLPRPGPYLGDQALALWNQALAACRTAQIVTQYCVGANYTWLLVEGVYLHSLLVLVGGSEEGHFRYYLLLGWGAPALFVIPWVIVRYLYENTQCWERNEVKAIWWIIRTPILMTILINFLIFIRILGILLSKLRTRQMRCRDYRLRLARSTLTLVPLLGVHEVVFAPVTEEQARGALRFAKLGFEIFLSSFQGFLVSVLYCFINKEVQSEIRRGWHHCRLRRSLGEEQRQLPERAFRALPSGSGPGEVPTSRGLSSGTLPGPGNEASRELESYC
# Assay: FACS binding assay
# Conditions: competition with 20 nM GIP-057, 4° C., 1 hour, read-out: pIC50 Category (converted)
# How it was run: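 Steps: detach CHO-K1-hGIPR cells (Accutase); wash in PBS/1% FCS; adjust to 500.000 cells per mL; wash ice-cold; incubate APC-streptavidin 1 μg/mL, 30 min on ice; wash twice; acquire on flow cytometer; fit MFI-concentration data with a four-parameter logistic model.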
row,Structure (SMILES),IC50 [nM]
1,"CC[C@H](C)[C@@H]1NC(=O)[C@H](CC(C)C)NC(=O)C2(CCN(C(=O)CN3CCN(CC(=O)O)CCN(CC(=O)O)CCN(CC(=O)O)CC3)CC2)NC(=O)[C@@H](NC(=O)[C@@H](CC(C)C)NC(=O)[C@H](CCC(=O)O)NC(=O)[C@@H]2C[C@@H](N)CN2C(=O)[C@H](Cc2c[nH]c3ccc(Cl)cc23)NC(=O)[C@H](Cc2c[nH]c3ccccc23)NC(=O)[C@H](CC(=O)O)NC(=O)CCCC(=O)NC[C@H](O)[C@@H](O)[C@H](O)[C@H](O)CO)CSCc2cccc(n2)CSC[C@H](C(=O)NC2CCN(CC(=O)N[C@H](CCC(=O)NC[C@H](O)[C@@H](O)[C@H](O)[C@H](O)CO)C(N)=O)CC2)NC1=O [GIP-038, AGLU-Glutar-Asp-Trp-5Clw-Tap-Glu-leu-[Cys(2Lut)-Apc(DOTA)-Leu-Ile-cys]-APAc-glu(AGLU)-NH2] ({NH(1-deoxy-D-glucityl)-Glutaryl}-DW[Trp(5-Cl)][Pro(4R-NH2)]E[dL]C[Api](DOTA)LI[dC][X1][dE](NH(1-deoxy-D-glucityl))-NH2; linker 7-11 via Pyridine(2,6-diCH2))",< 10
2,"CCOCCOCCOCCOCCOCCOCCOCCOCCOCCOCCOCCOCCOCCOCCOCCOCCOCCOCCOCCOCCOCCOCCOCCOCCOCCOCCOCCOCCOCCOCCOCCOCCOCCOCCOCCOCCOCC(=O)NC1CCN(CC(=O)N[C@@H](CC(=O)O)C(=O)N[C@@H](Cc2c[nH]c3ccccc23)C(=O)N[C@@H](Cc2c[nH]c3ccc(Cl)cc23)C(=O)N2C[C@H](O)C[C@H]2C(=O)N[C@@H](CCC(=O)O)C(=O)N[C@H](CC(C)C)C(=O)N[C@H]2CSCc3cccc(n3)CSC[C@@H](C(=O)NC3CCN(CC(=O)N[C@H](CCC(=O)NC[C@H](O)[C@@H](O)[C@H](O)[C@H](O)CO)C(N)=O)CC3)NC(=O)[C@H]([C@@H](C)CC)NC(=O)[C@H](CC(C)C)NC(=O)C3(CCN(C(=O)CN4CCN(CC(=O)O)CCN(CC(=O)O)CCN(CC(=O)O)CC4)CC3)NC2=O)CC1 [GIP-041, MeO36PEG-APAc-Asp-Trp-5Clw-Hyp-Glu-leu-[Cys(2Lut)-Apc(DOTA)-Leu-Ile-Cys]-APAc-glu(AGLU)-NH2]",10 to 79.4
3,"CC[C@H](C)[C@@H]1NC(=O)[C@H](CC(C)C)NC(=O)C2(CCN(C(=O)CCCC(=O)NC[C@H](O)[C@@H](O)[C@H](O)[C@H](O)CO)CC2)NC(=O)[C@@H](NC(=O)[C@@H](CC(C)C)NC(=O)[C@H](CCC(=O)O)NC(=O)[C@@H]2C[C@@H](N)CN2C(=O)[C@H](Cc2c[nH]c3ccc(Cl)cc23)NC(=O)[C@H](Cc2c[nH]c3ccccc23)NC(=O)[C@H](CC(=O)O)NC(=O)[C@@H](CCC(=O)NC[C@H](O)[C@@H](O)[C@H](O)[C@H](O)CO)NC(=O)CN2CCN(CC(=O)O)CCN(CC(=O)O)CCN(CC(=O)O)CC2)CSCc2cccc(n2)CSC[C@@H](C(=O)NC2CCN(CC(=O)N[C@H](CCC(=O)NC[C@H](O)[C@@H](O)[C@H](O)[C@H](O)CO)C(N)=O)CC2)NC1=O [GIP-045, DOTA-glu(AGLU)-Asp-Trp-5Clw-Tap-Glu-leu-[Cys(2Lut)-Apc(AGLU-Glutar)-Leu-Ile-Cys]-APAc-glu(AGLU)-NH2] ({DOTA}-[dE](NH(1-deoxy-D-glucityl))DW[Trp(5-Cl)][Pro(4R-NH2)]E[dL]C[Api]([Glutaryl-NH(1-deoxy-D-glucityl)])LIC[X1][dE](NH(1-deoxy-D-glucityl))-NH2; linker 8-12 via Pyridine(2,6-diCH2))",< 10
4,"CC[C@H](C)[C@@H]1NC(=O)[C@H](CC(C)C)NC(=O)C2(CCN(C(=O)[C@H](CCC(=O)NC[C@H](O)[C@@H](O)[C@H](O)[C@H](O)CO)NC(=O)CN3CCN(CC(=O)O)CCN(CC(=O)O)CCN(CC(=O)O)CC3)CC2)NC(=O)[C@@H](NC(=O)[C@@H](CC(C)C)NC(=O)[C@H](CCC(=O)O)NC(=O)[C@@H]2C[C@@H](O)CN2C(=O)[C@H](Cc2c[nH]c3ccc(Cl)cc23)NC(=O)[C@H](Cc2c[nH]c3ccccc23)NC(=O)[C@H](CCO)NC(=O)CN2CCC(NC(=O)CCCC(=O)NC[C@H](O)[C@@H](O)[C@H](O)[C@H](O)CO)CC2)CSCc2cccc(n2)CSC[C@@H](C(=O)NC2CCN(CC(=O)N[C@H](CCC(=O)NC[C@H](O)[C@@H](O)[C@H](O)[C@H](O)CO)C(N)=O)CC2)NC1=O [GIP-047, AGLU-Glutar-APAc-Hse-Trp-5Clw-Hyp-Glu-leu-[Cys(2Lut)-Apc(DOTA-glu(AGLU))-Leu-Ile-Cys]-APAc-glu(AGLU)-NH2] ({NH(1-deoxy-D-glucityl)-Glutaryl}-[X1][hSer]W[Trp(5-Cl)][Hyp]E[dL]C[Api](X2)LIC[X1][dE](NH(1-deoxy-D-glucityl))-NH2; linker 8-12 via Pyridine(2,6-diCH2))",10 to 79.4

# More lines, now with the values ahead:
row,IC50 [nM],Structure (SMILES)
1,10 to 79.4,"CC[C@H](C)[C@@H]1NC(=O)[C@H](CC(C)C)NC(=O)C2(CCN(C(=O)CN3CCN(CC(=O)O)CCN(CC(=O)O)CCN(CC(=O)O)CC3)CC2)NC(=O)[C@@H](NC(=O)[C@@H](CC(C)C)NC(=O)[C@H](CCC(=O)O)NC(=O)[C@@H]2C[C@@H](O)CN2C(=O)[C@H](Cc2c[nH]c3ccc(Cl)cc23)NC(=O)[C@H](Cc2c[nH]c3ccccc23)NC(=O)[C@H](CC(=O)O)NC(=O)CN2CCC(NC(=O)CCCC(=O)NC[C@H](O)[C@@H](O)[C@H](O)[C@H](O)CO)CC2)CSCc2cccc(n2)CSC[C@@H](C(=O)N[C@H](CCCCNC(=O)CCOCCOCCOCCOCCOCCOCCOCCOCCOCCOCCOCCOCCOCCOCCOCCOCCOCCOCCOCCOCCOCCOCCOCCOCCOCCOCCOCCOCCOCCOCCOCCOCCOCCOCCOCCOCCOC)C(N)=O)NC1=O [GIP-039, AGLU-Glutar-APAc-Asp-Trp-5Clw-Hyp-Glu-leu-[Cys(2Lut)-Apc(DOTA)-Leu-Ile-Cys]-lys(MeO36PEG)-NH2]"
2,10 to 79.4,"CCOCCOCCOCCOCCOCCOCCOCCOCCOCCOCCOCCOCCOCCOCCOCCOCCOCCOCCOCCOCCOCCOCCOCCOCCOCCOCCOCCOCCOCCOCCOCCOCCOCCOCCOCCOCCOCC(=O)NC1CCN(CC(=O)N[C@@H](CC(=O)O)C(=O)N[C@@H](Cc2c[nH]c3ccccc23)C(=O)N[C@@H](Cc2c[nH]c3ccc(Cl)cc23)C(=O)N2C[C@H](N)C[C@H]2C(=O)N[C@@H](CCC(=O)O)C(=O)N[C@H](CC(C)C)C(=O)N[C@H]2CSCc3cccc(n3)CSC[C@@H](C(=O)NC3CCN(CC(=O)N[C@H](CCC(=O)NC[C@H](O)[C@@H](O)[C@H](O)[C@H](O)CO)C(N)=O)CC3)NC(=O)[C@H]([C@@H](C)CC)NC(=O)[C@H](CC(C)C)NC(=O)C3(CCN(C(=O)CN4CCN(CC(=O)O)CCN(CC(=O)O)CCN(CC(=O)O)CC4)CC3)NC2=O)CC1 [GIP-042, MeO36PEG-APAc-Asp-Trp-5Clw-Tap-Glu-leu-[Cys(2Lut)-Apc(DOTA)-Leu-Ile-Cys]-APAc-glu(AGLU)-NH2]"
3,< 10,"CC[C@H](C)[C@@H]1NC(=O)[C@H](CC(C)C)NC(=O)C2(CCN(C(=O)[C@H](CCC(=O)NC[C@H](O)[C@@H](O)[C@H](O)[C@H](O)CO)NC(=O)CN3CCN(CC(=O)O)CCN(CC(=O)O)CCN(CC(=O)O)CC3)CC2)NC(=O)[C@@H](NC(=O)[C@@H](CC(C)C)NC(=O)[C@H](CCC(=O)O)NC(=O)[C@@H]2C[C@@H](O)CN2C(=O)[C@H](Cc2c[nH]c3ccc(Cl)cc23)NC(=O)[C@H](Cc2c[nH]c3ccccc23)NC(=O)[C@H](CC(=O)O)NC(=O)CN2CCC(NC(=O)CCCC(=O)NC[C@H](O)[C@@H](O)[C@H](O)[C@H](O)CO)CC2)CSCc2cccc(n2)CSC[C@@H](C(=O)NC2CCN(CC(=O)N[C@H](CCC(=O)NC[C@H](O)[C@@H](O)[C@H](O)[C@H](O)CO)C(N)=O)CC2)NC1=O [GIP-043, AGLU-Glutar-APAc-Asp-Trp-5Clw-Hyp-Glu-leu-[Cys(2Lut)-Apc(DOTA-glu(AGLU))-Leu-Ile-Cys]-APAc-glu(AGLU)-NH2] ({NH(1-deoxy-D-glucityl)-Glutaryl}-[X1]DW[Trp(5-Cl)][Hyp]E[dL]C[Api](X2)LIC[X1][dE](NH(1-deoxy-D-glucityl))-NH2; linker 8-12 via Pyridine(2,6-diCH2))"
4,< 10,"CC[C@H](C)[C@@H]1NC(=O)[C@H](CC(C)C)NC(=O)C2(CCN(C(=O)CCCC(=O)NC[C@H](O)[C@@H](O)[C@H](O)[C@H](O)CO)CC2)NC(=O)[C@@H](NC(=O)[C@@H](CC(C)C)NC(=O)[C@H](CCC(=O)O)NC(=O)[C@@H]2C[C@@H](N)CN2C(=O)[C@H](Cc2c[nH]c3ccc(Cl)cc23)NC(=O)[C@H](Cc2c[nH]c3ccccc23)NC(=O)[C@H](CC(=O)O)NC(=O)[C@@H](CCC(=O)NC[C@H](O)[C@@H](O)[C@H](O)[C@H](O)CO)NC(=O)COCCOCCNC(=O)CN2CCN(CC(=O)O)CCN(CC(=O)O)CCN(CC(=O)O)CC2)CSCc2cccc(n2)CSC[C@@H](C(=O)NC2CCN(CC(=O)N[C@H](CCC(=O)NC[C@H](O)[C@@H](O)[C@H](O)[C@H](O)CO)C(N)=O)CC2)NC1=O [GIP-044, DOTA-02Oc-glu(AGLU)-Asp-Trp-5Clw-Tap-Glu-leu-[Cys(2Lut)-Apc(AGLU-Glutar)-Leu-Ile-Cys]-APAc-glu(AGLU)-NH2] ({DOTA-AEEA}-[dE](NH(1-deoxy-D-glucityl))DW[Trp(5-Cl)][Pro(4R-NH2)]E[dL]C[Api]([Glutaryl-NH(1-deoxy-D-glucityl)])LIC[X1][dE](NH(1-deoxy-D-glucityl))-NH2; linker 8-12 via Pyridine(2,6-diCH2))"
